Our source for the IC50 values is US10550105B2 (Ribon Therapeutics Inc., priority 2018, dated 2020).

Molecules are shown by their SMILES. Bounds are passed on as bounds.

PARP7, sequence (Q7Z3E1 whole entry): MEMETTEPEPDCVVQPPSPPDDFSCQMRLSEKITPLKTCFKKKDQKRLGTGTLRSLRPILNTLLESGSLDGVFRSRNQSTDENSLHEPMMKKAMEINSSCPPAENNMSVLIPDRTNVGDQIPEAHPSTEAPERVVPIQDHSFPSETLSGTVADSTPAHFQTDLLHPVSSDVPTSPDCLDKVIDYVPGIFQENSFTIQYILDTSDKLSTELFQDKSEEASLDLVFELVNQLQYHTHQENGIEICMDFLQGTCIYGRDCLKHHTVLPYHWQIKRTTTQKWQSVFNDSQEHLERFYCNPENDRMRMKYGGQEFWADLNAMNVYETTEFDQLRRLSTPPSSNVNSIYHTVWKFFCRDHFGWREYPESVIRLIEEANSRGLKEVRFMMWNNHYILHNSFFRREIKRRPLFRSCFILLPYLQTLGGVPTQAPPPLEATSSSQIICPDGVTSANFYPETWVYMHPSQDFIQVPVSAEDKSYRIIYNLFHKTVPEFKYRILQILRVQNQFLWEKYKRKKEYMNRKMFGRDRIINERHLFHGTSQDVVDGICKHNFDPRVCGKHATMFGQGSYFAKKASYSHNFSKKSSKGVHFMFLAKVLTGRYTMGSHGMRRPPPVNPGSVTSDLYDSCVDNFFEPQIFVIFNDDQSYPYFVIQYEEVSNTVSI

This assay concerns the target PARP7 (Homo sapiens (Human), UniProt Q7Z3E1). The assay is described as follows: Enzymatic assay for inhibition of PARP7: TR-FRET displacement of biotinylated Probe A from the TIPARP active site. In kind it is binding. As to conditions: Table A-1. The essentials: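 Titrated compounds compete with the biotinylated probe; after an additional 30 min incubation at 25° C, time-delayed fluorescence (90 μs) is measured. Inhibition curves use a Hill coefficient that normally floats but may be held at 1.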
(TR-FRET usually uses a lanthanide donor and a delayed reading to cut background.)
One may read the IC50 as the concentration that inhibits the measured activity by half. Lower therefore signals higher potency. Take `C[C@H](COCCC(=O)N1CCN(c2ccc(C#N)cn2)CC1)Nc1cn[nH]c(=O)c1C(F)(F)F` [Example 513B, (R)-6-(4-(3-(2-(6-Oxo-5-(trifluoromethyl)-1,6-dihydropyridazin-4-ylamino)propoxy)propanoyl)piperazin-1-yl)nicotinonitrile]: the IC50 lay within 100 to 1000 nM. `N#Cc1ccc(N2CCN(C(=O)CCOC[C@H](Nc3cn[nH]c(=O)c3C(F)(F)F)c3ccccc3)CC2)nc1` [Example 514A, 6-(4-[3-[(2R)-2-[[6-Oxo-5-(trifluoromethyl)-1,6-dihydropyridazin-4-yl]amino]-2-phenylethoxy]propanoyl]piperazin-1-yl)pyridine-3-carbonitrile] had a half-inhibitory concentration (IC50) of no less than 1000 nM. In turn, `N#Cc1ccc(N2CCN(C(=O)CCOC[C@@H](Nc3cn[nH]c(=O)c3C(F)(F)F)c3ccccc3)CC2)nc1` [Example 514B, 6-(4-[3-[(2S)-2-[[6-Oxo-5-(trifluoromethyl)-1,6-dihydropyridazin-4-yl]amino]-2-phenylethoxy]propanoyl]piperazin-1-yl)pyridine-3-carbonitrile] displayed an IC50 of less than 100 nM. In the case of `N#Cc1ccc(N2CCN(C(=O)CCOC[C@H](Cc3ccccc3)Nc3cn[nH]c(=O)c3C(F)(F)F)CC2)nc1` [Example 515B], the 50% inhibitory concentration (IC50) was less than 100 nM.

`CN(CCOc1cn[nH]c(=O)c1C(F)(F)F)CCC(=O)N1CCN(c2ccc(C#N)cn2)CC1` [Example 516] had a concentration for half-maximal inhibition (IC50) of less than 100 nM.

`N#Cc1ccc(N2CCN(C(=O)COCCCOc3cn[nH]c(=O)c3C(F)(F)F)CC2)nc1` [Example 517, 6-(4-(2-(3-(6-Oxo-5-(trifluoromethyl)-1,6-dihydropyridazin-4-yloxy)propoxy)acetyl)piperazin-1-yl)nicotinonitrile] gave an IC50 of less than 100 nM. `O=C(CCOCCOc1cn[nH]c(=O)c1Cl)N1CCN(c2ncc(C(F)(F)F)cn2)CC1` [Example 520, 4-Chloro-5-[2-(3-oxo-3-[4-[5-(trifluoromethyl)pyrimidin-2-yl]piperazin-1-yl]propoxy)ethoxy]-2,3-dihydropyridazin-3-one] displayed an IC50 of less than 100 nM. As for `N#Cc1ccc(N2CCN(C(=O)CCOCCOc3cn[nH]c(=O)c3Cl)CC2)nc1` [Example 521, 6-[4-(3-[2-[(5-Chloro-6-oxo-1,6-dihydropyridazin-4-yl)oxy]ethoxy]propanoyl)piperazin-1-yl]pyridine-3-carbonitrile], the figure is less than 100 nM; as for `O=C(CCOCCOc1cn[nH]c(=O)c1Cl)N1CCN(c2ncc(Cl)cn2)CC1` [Example 522, 4-Chloro-5-(2-[3-[4-(5-chloropyrimidin-2-yl)piperazin-1-yl]-3-oxopropoxy]ethoxy)-2,3-dihydropyridazin-3-one], less than 100 nM. `N#Cc1ccc(N2CCN(C(=O)CNCCCOc3cn[nH]c(=O)c3C(F)(F)F)CC2)nc1` [Example 524] displayed an IC50 of 100 to 1000 nM. Compound `N#Cc1ccc(N2CCN(C(=O)CCCOCCOc3cn[nH]c(=O)c3C(F)(F)F)CC2)nc1` [Example 525, 6-[4-[4-(2-[[6-Oxo-5-(trifluoromethyl)-1,6-dihydropyridazin-4-yl]oxy]ethoxy)butanoyl]piperazin-1-yl]pyridine-3-carbonitrile] had an IC50 of less than 100 nM. As for `CN(CCOCCCN1CCN(c2ccc(C#N)cn2)CC1)c1cn[nH]c(=O)c1C(F)(F)F` [Example 526, 6-[4-[3-(2-[Methyl[6-oxo-5-(trifluoromethyl)-1,6-dihydropyridazin-4-yl]amino]ethoxy)propyl]piperazin-1-yl]pyridine-3-carbonitrile], the figure is 100 to 1000 nM. In the case of `N#Cc1ccc(N2CCN(C(=O)CCOC[C@@H](Nc3cn[nH]c(=O)c3C(F)(F)F)c3ccncc3)CC2)nc1` [Example 527A, 6-(4-[3-[(2S)-2-[[6-Oxo-5-(trifluoromethyl)-1,6-dihydropyridazin-4-yl]amino]-2-(pyridin-4-yl)ethoxy]propanoyl]piperazin-1-yl)pyridine-3-carbonitrile], the 50% inhibitory concentration (IC50) is less than 100 nM. In turn, `N#Cc1ccc(N2CCN(C(=O)CCOC[C@H](Nc3cn[nH]c(=O)c3C(F)(F)F)c3ccncc3)CC2)nc1` [Example 527B, 6-(4-[3-[(2R)-2-[[6-Oxo-5-(trifluoromethyl)-1,6-dihydropyridazin-4-yl]amino]-2-(pyridin-4-yl)ethoxy]propanoyl]piperazin-1-yl)pyridine-3-carbonitrile] yielded a concentration for half-maximal inhibition (IC50) of no less than 1000 nM. Next, `C[C@@H](CC(=O)N1CCN(c2ccc(C#N)cn2)CC1)OCCNc1cn[nH]c(=O)c1C(F)(F)F` [Example 528A]: less than 100 nM; `C[C@H](CC(=O)N1CCN(c2ccc(C#N)cn2)CC1)OCCNc1cn[nH]c(=O)c1C(F)(F)F` [Example 528B]: less than 100 nM; `N#Cc1ccc(N2CCN(C(=O)CCOCC(CO)Nc3cn[nH]c(=O)c3C(F)(F)F)CC2)nc1` (centres unmarked) [Example 529, 6-[4-[3-(3-Hydroxy-2-[[6-oxo-5-(trifluoromethyl)-1,6-dihydropyridazin-4-yl]amino]propoxy)propanoyl]piperazin-1-yl]pyridine-3-carbonitrile]: less than 100 nM. Take `C[C@@H](COCCC(=O)N1CCN(c2ccc(C#N)cn2)CC1)Oc1cn[nH]c(=O)c1C(F)(F)F` [Example 530A, 6-(4-[3-[(2S)-2-[[6-Oxo-5-(trifluoromethyl)-1,6-dihydropyridazin-4-yl]oxy]propoxy]propanoyl]piperazin-1-yl)pyridine-3-carbonitrile]: the concentration for half-maximal inhibition (IC50) is less than 100 nM. Take `C[C@H](COCCC(=O)N1CCN(c2ccc(C#N)cn2)CC1)Oc1cn[nH]c(=O)c1C(F)(F)F` [Example 530B, 6-(4-[3-[(2R)-2-[[6-Oxo-5-(trifluoromethyl)-1,6-dihydropyridazin-4-yl]oxy]propoxy]propanoyl]piperazin-1-yl)pyridine-3-carbonitrile]: the IC50 is 100 to 1000 nM. Next, `C[C@@H](COc1cn[nH]c(=O)c1C(F)(F)F)OCCC(=O)N1CCN(c2ccc(C#N)cn2)CC1` [Example 530C, 6-[4-(3-[[(2S)-1-[[6-Oxo-5-(trifluoromethyl)-1,6-dihydropyridazin-4-yl]oxy]propan-2-yl]oxy]propanoyl)piperazin-1-yl]pyridine-3-carbonitrile]: 100 to 1000 nM; `C[C@H](COc1cn[nH]c(=O)c1C(F)(F)F)OCCC(=O)N1CCN(c2ccc(C#N)cn2)CC1` [Example 530D, 6-[4-(3-[[(2R)-1-[[6-Oxo-5-(trifluoromethyl)-1,6-dihydropyridazin-4-yl]oxy]propan-2-yl]oxy]propanoyl)piperazin-1-yl]pyridine-3-carbonitrile]: less than 100 nM; `N#Cc1ccc(N2CCN(C(=O)CCO[C@@H]3COC[C@@H]3Oc3cn[nH]c(=O)c3C(F)(F)F)CC2)nc1` [Example 531, 6-[4-(3-[[(3R,4S)-4-[[6-Oxo-5-(trifluoromethyl)-1,6-dihydropyridazin-4-yl]oxy]oxolan-3-yl]oxy]propanoyl)piperazin-1-yl]pyridine-3-carbonitrile]: less than 100 nM.

The compound `O=C(CCOCCOc1cn[nH]c(=O)c1C(F)(F)F)N1CCN(c2ncc(Cl)cn2)CC1` [Example 533, 5-(2-[3-[4-(5-Chloropyrimidin-2-yl)piperazin-1-yl]-3-oxopropoxy]ethoxy)-4-(trifluoromethyl)-2,3-dihydropyridazin-3-one] had a half-maximal inhibitory concentration (IC50) of less than 100 nM.
